Assay results from patent US20220409727A1, “Metal Complexes Bearing Bisstyryl-Bipyridine Ligand and Their Use as Photosensitizer Agent in One and Two-Photon Photodynamic Therapy” (Paris Sciences et Lettres, priority 2019, published 2022).
Where two headings read alike, the source gives them in different places.

Experiments:
[1] = system: mouse colon carcinoma (CT-26) cells
[2] = system: human glioblastoma astrocytoma (U373) cells; test: (Photo-)cytotoxicity on 2D cell monolayers, resazurin assay, U373; conditions: for PI (480 nm): U373, dark vs 480 nm (10 min, 3.1 J/cm^2); for PI (540 nm): U373, dark vs 540 nm (40 min, 9.5 J/cm^2); for IC50: compounds 1-3 as chloride salts
[3] = Singlet oxygen measurement, indirect evaluation (RNO absorbance); format: physicochemical; conditions: indirect
Procedure: For the measurement in CH3CN: The samples were prepared in an air-saturated CH3CN solution containing the complex with an absorbance of 0.2 at the irradiation wavelength, N,N-dimethyl-4-nitrosoaniline aniline (RNO, 24 μM) and imidazole (12 mM). For the measurement in PBS buffer: The samples were prepared in an air-saturated PBS solution containing the complex with an absorbance of 0.1 at the irradiation wavelength, N,N-dimethyl-4-nitrosoaniline aniline (RNO, 20 μM) and histidine (10 mM). The samples were irradiated on 96 well plates with an Atlas Photonics LUMOS BIO irradiator for different times. The absorbance of the samples was measured during these time intervals with a SpectraMax M2 Microplate Reader (Molecular Devices). The difference in absorbance (A0−A) at 420 nm for the CH3CN solution or at 440 nm a PBS buffer solution was calculated and plotted against the irradiation times. From the plot the slope of the linear regression was calculated as well as the absorbance correction factor determined. The singlet oxygen quantum yields were calculated using the same formulas as used for the direct evaluation.

[4] = Luminescence lifetime measurements; format: physicochemical; conditions: excitation at 355 nm; for τ/ns air (Lifetime): air saturated CH3CN; for τ/ns degassed (Lifetime): degassed CH3CN
Procedure: (§1) For the determination of the lifetimes, the samples were prepared in an air saturated and in a degassed CH3CN solution with an absorbance of 0.2 at 355 nm. This solution was irradiated in fluorescence quartz cuvettes (width 1 cm) using a NT342B Nd-YAG pumped optical parametric oscillator (Ekspla) at 355 nm. The emission signal was focused and collected at right angle to the excitation pathway and directed to a Princeton Instruments Acton SP-2300i monochromator. As a detector a R928 photomultiplier tube (Hamamatsu) has been used.

[5] = Luminescence quantum yield measurements; format: physicochemical; design: key: fraction, relative to [Ru(bipy)3]Cl2 reference in CH3CN (Φem=5.9%); conditions: CH3CN, room temperature, excitation at 355 nm
Procedure: as §1, with “luminescence quantum yield,” for “lifetimes,”, “an” for “an air saturated and in a degassed”, “0.1” for “0.2”, “XPI-Max 4 CCD camera (Princeton Instruments)” for “R928 photomultiplier tube (Hamamatsu)”, “used. The luminescence quantum yields were determined by comparison with the reference [Ru(bipy)3]Cl2 in CH3CN (Φem=5.9%) (Nakamaru, K., 1982) applying the following formula:” for “used.”
Φem, sample=Φem, reference*(Freference/Fsample)*(Isample/Ireference)*(nsample/nreference)^2
Φem=luminescence quantum yield, F=fraction of light absorbed, I=integrated emission intensities, n=refractive index, A=absorbance of the sample at irradiation wavelength.

[6] = Emission measurement in CH3CN; format: physicochemical; conditions: room temperature, excitation at 355 nm
Procedure: The absorption of the samples was measured with a SpectraMax M2 Spectrometer (Molecular Devices). The emission was measured by irradiation of the sample in fluorescence quartz cuvettes (width 1 cm) using a NT342B Nd-YAG pumped optical parametric oscillator (Ekspla) at 355 nm. Luminescence was focused and collected at right angle to the excitation pathway and directed to a Princeton Instruments Acton SP-2300i monochromator. As a detector, a XPI-Max 4 CCD camera (Princeton Instruments) has been used.

[7] = system: human cervical carcinoma (HeLa) cells; test: (Photo-)cytotoxicity on 2D cell monolayers, resazurin assay, HeLa; format: cell-based; conditions: for PI (480 nm): dark vs 480 nm (10 min, 3.1 J/cm^2); for PI (540 nm): dark vs 540 nm (40 min, 9.5 J/cm^2)
Description: Before an experiment, the cells were passaged three times.

[8] = system: human glioblastoma astrocytoma (U373) cells
[9] = system: non-cancerous retinal pigment epithelium (RPE-1) cells; test: (Photo-)cytotoxicity on 2D cell monolayers, resazurin assay, RPE-1; conditions: for PI (480 nm): RPE-1, dark vs 480 nm (10 min, 3.1 J/cm^2); for PI (540 nm): RPE-1, dark vs 540 nm (40 min, 9.5 J/cm^2);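 on all read-outs here: cells exposed to compound 4 h, medium exchanged, then irradiated or kept dark, 44 h further growth, viability by resorufin fluorescence (ex 540 nm, em 590 nm)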
[10] = Singlet oxygen measurement, direct evaluation (1O2 luminescence at 1270 nm); format: physicochemical
Procedure: The samples were prepared in an air saturated CH3CN or D2O solution with an absorbance of 0.2 at 450 nm. This solution was irradiated in fluorescence quartz cuvettes (width 1 cm) using a mounted M450LP1 LED (Thorlabs) whose irradiation, centered at 450 nm, has been focused with aspheric condenser lenses. The intensity of the irradiation has been varied using a T-Cube LED Driver (Thorlabs) and measured with an optical power and energy meter. The emission signal was focused and collected at right angle to the excitation pathway and directed to a Princeton Instruments Acton SP-2300i monochromator. A longpass glass filter was placed in front of the monochromator entrance slit to cut off light at wavelengths shorter than 850 nm. As a detector an EO-817L IR-sensitive liquid nitrogen cooled germanium diode detector (North Coast Scientific Corp.) has been used. The singlet oxygen luminesce at 1270 nm was measured by recording spectra from 1100 to 1400 nm. For the data analysis, the singlet oxygen luminescence peaks at different irradiation intensities were integrated. The resulting areas were plotted against the percentage of the irradiation intensity and the slope of the linear regression calculated. The absorbance of the sample was corrected with an absorbance correction factor. As reference for the measurement Rose Bengal (Φ=76%) (Kochevar, I. E. and Redmond, R. W., 2000) was used and the singlet oxygen quantum yields were calculated using the following formula:
Φsample=Φreference*(Ssample/Sreference)*(Ireference/Isample)
Φ=singlet oxygen quantum yield, S=slope of the linear regression of the plot of the areas of the singlet oxygen luminescence peaks against the irradiation intensity, I=absorbance correction factor, […] of the irradiation source, A=absorbance of the sample at irradiation wavelength.

[11] = system: mouse colon carcinoma (CT-26) cells; test: (Photo-)cytotoxicity on 2D cell monolayers, resazurin assay, CT-26; conditions: for PI (480 nm): CT-26, dark vs 480 nm (10 min, 3.1 J/cm^2); for PI (540 nm): CT-26, dark vs 540 nm (40 min, 9.5 J/cm^2); for IC50: compounds 1-3 as chloride salts
[12] = read-out: IC50 480 nm (10 min, 3.1 J/cm^2), U373, irradiation 480 nm (10 min, 3.1 J/cm^2)
[13] = read-out: IC50 dark, U373, dark, 4 h incubation
[14] = dark, 4 h incubation, compounds 1-3 as chloride salts, read-out: IC50 dark
[15] = read-out: IC50 480 nm (10 min, 3.1 J/cm^2), irradiation 480 nm (10 min, 3.1 J/cm^2), compounds 1-3 as chloride salts
[16] = read-out: IC50 540 nm (40 min, 9.5 J/cm^2), irradiation 540 nm (40 min, 9.5 J/cm^2), compounds 1-3 as chloride salts
[17] = read-out: IC50 540 nm (40 min, 9.5 J/cm^2), CT-26, irradiation 540 nm (40 min, 9.5 J/cm^2)
[18] = read-out: IC50 dark, CT-26, dark, 4 h incubation

SMILES	IC50 [1]	PI (480 nm) [2]	PI (540 nm) [2]	IC50 [2, 12]	IC50 [2, 13]	Singlet oxygen quantum yield, indirect 450 nm CH3CN [3]	Singlet oxygen quantum yield, indirect 450 nm PBS [3]	Singlet oxygen quantum yield, indirect 540 nm CH3CN [3]	Singlet oxygen quantum yield, indirect 540 nm PBS [3]	τ/ns air (Lifetime) [4]	τ/ns degassed (Lifetime) [4]	ϕem (Luminescence Quantum Yield) [5]	λem/nm (Emission maximum) [6]	PI (480 nm) [7]	PI (540 nm) [7]	IC50 [7, 14]	IC50 [7, 15]	IC50 [7, 16]	IC50 [8]	PI (480 nm) [9]	also measured
COc1ccc(/C=C/c2ccnc(-c3cc(/C=C/c4ccc(OC)cc4)ccn3)c2)cc1.COc1ccc(/C=C/c2ccnc(-c3cc(/C=C/c4ccc(OC)cc4)ccn3)c2)cc1.COc1ccc(/C=C/c2ccnc(-c3cc(/C=C/c4ccc(OC)cc4)ccn3)c2)cc1.F[P-](F)(F)(F)(F)F.F[P-](F)(F)(F)(F)F.[Ru+2] [Compound 3, [Ru((E,E′)-4,4′-Bis[p-methoxystyryl]-2,2′-bipyridine)3][PF6]2]	19.3 ± 2.1 µM	>2.4	>1.9	41 ± 3.5 µM	> 100 µM	48%	6%	49%	5%	76 ns	338 ns	0.011	682 nm	>6.5	>8.8	> 100 µM	15.3 ± 1.4 µM	11.3 ± 2.2 µM	51.3 ± 3.4 µM	>1.9	PI (540 nm) [9]: >2.2; Singlet oxygen quantum yield, direct 450 nm CH3CN [10]: 52%; PI (480 nm) [11]: >5.2; PI (540 nm) [11]: >4.3; IC50 [11, 17]: 23 ± 2.6 µM; IC50 [11, 18]: > 100 µM
C(=C\c1ccnc(-c2cc(/C=C/c3ccccc3)ccn2)c1)/c1ccccc1.C(=C\c1ccnc(-c2cc(/C=C/c3ccccc3)ccn2)c1)/c1ccccc1.C(=C\c1ccnc(-c2cc(/C=C/c3ccccc3)ccn2)c1)/c1ccccc1.F[P-](F)(F)(F)(F)F.F[P-](F)(F)(F)(F)F.[Ru+2] [Compound 1]	20.3 ± 1.8 µM	>1.9	>1.2	51.7 ± 3.2 µM	> 100 µM	66%	5%	61%	3%	86 ns	385 ns	0.019	677 nm	>3.4	>2.1	> 100 µM	29.5 ± 1.2 µM	48.7 ± 4.5 µM	83.1 ± 6.7 µM	>3.2	PI (540 nm) [9]: >3.2; Singlet oxygen quantum yield, direct 450 nm CH3CN [10]: 65%; PI (480 nm) [11]: >4.9; PI (540 nm) [11]: >3.0; IC50 [11, 17]: 33.4 ± 3.5 µM; IC50 [11, 18]: > 100 µM
